Read-outs that look alike come from different tables or passages of the source.
Assays:
Karpas299, ALCL [1] = test: In vitro assays - tubulysin ADCs (cAC10, anti-CD30); type: cell-based; conditions: Table 4; cAC10 ADCs DAR 8, 96 h
L540cy, HL [2] = system: L540cy, HL
Method: (§1) In vitro assays. Cells cultured in log-phase growth were seeded for 24 h in 96-well plates containing 150 μL RPMI 1640 supplemented with 20% FBS. Serial dilutions of antibody-drug conjugates in cell culture media were prepared at 4× working concentrations; 50 μL of each dilution was added to the 96-well plates. […] After 96 h, growth inhibition was assessed by CellTiter-Glo® (Promega, Madison, WI) and luminescence was measured on a plate reader.
(§2) In vitro assays—tubulysin ADCs. ADCs were prepared by t Ell reduction of interchain disulfides to reveal 8-conjugatable cysteines/antibody that were alkylated through Michael addition with the maleimide-containing Drug Linker compounds. […] conjugates hearing quaternized tubulysin ethers with and without a PEG12 side-chain were compared to their tubulysin M analogs.
(§3) Several hydrophilic linker constructs incorporating quaternized tubulysin M were prepared and evaluated in vitro; the results are shown in Table 5. The data (IC50 values in ng/mL) indicate that Conjugates prepared from Drug Linker compounds having quaternized tubulysin M linked via a hydrophilic ValGlu dipeptide with (95) or without (91) a PEG12 side chain, or linked via a hydrophilic glucuronide (82) provide ADCs that are equipotent to the ValAla comparator (15).

DEL/BVR, MDR + ALCL = system: DEL/BVR, MDR + ALCL
Method: as §1, §2, §3

L428, MDR + HL [3] = system: L428, MDR + HL
Method: as §1, §2, §3

DEL, ALCL = system: DEL, ALCL
Method: as §1, §2, §3

[4] = system: antigen-negative Hep3B hepatocellular carcinoma cells; conditions: Table 5, cAC10 ADCs 8 drugs/mAb, MDPR-Linker-TubM
Method: as §1, §3

HL60/RV, MDR + AML = test: In vitro assays - tubulysin free drugs, CellTiter-Glo growth inhibition; type: cell-based; conditions: Homo sapiens, HL-60, 96 h, free drug
L540cy, HL [5] = test: as above; type: cell-based; conditions: L540cy, 96 h, free drug
HL60, AML = test: as above; type: cell-based; conditions: Homo sapiens, HL-60, 96 h, free drug
L428, MDR + HL [6] = test: as above; type: cell-based; conditions: Homo sapiens, L-428, 96 h, free drug
Method: (§4) In vitro assays. Cells cultured in log-phase growth were seeded for 24 h in 96-well plates containing 150 μL RPMI 1640 supplemented with 20% FBS. Serial dilutions of antibody-drug conjugates in cell culture media were prepared at 4× working concentrations; 50 μL of each dilution was added to the 96-well plates. Following addition of ADC, cells were incubated with test articles for 4 d at 37° C. After 96 h, growth inhibition was assessed by CellTiter-Glo® (Promega, Madison, WI) and luminescence was measured on a plate reader. The IC50 value, determined in triplicate, is defined here as the concentration that results in a 50% reduction in cell growth relative to untreated controls.
(§5) In vitro assays—tubulysin free drugs. Cells were treated for 96 hours with tubulysin ether analogs (40-42) or tubulysin M (7), then assessed for viability as described in the methods.
(§6) The tubulysin ester analogs (133-137) and unsaturated ether analogs (176-179) were tested in vitro for potency relative to tubulysin M (7), following a 96 hour exposure. As shown by IC50 values (nM) of Table 2, Tubulysin esters 133-136 performed comparably to tubulysin M, with similar potencies across of the cell lines.

Karpas299, ALCL [7] = test: as above; type: cell-based; conditions: Homo sapiens, KARPAS-299, 96 h, free drug
Method: as §4, §5, §6

[8] = system: Karpas299, L540cy, L428, HL60, HL60/RV cell lines; test: In vitro assays - tubulysin free drugs, statements across the cell line panel; type: cell-based; conditions: for potency relative to tubulysin M (7), in words: Table 2 cell lines, 96 hour exposure
Method: as §4, §5
The ethyl ether and tubulysin M maintained the highest level of potency in the context of MDR+L428 and HL60/RV cell lines.
as §6

[9] = Table 4, cAC10 ADCs DAR 8, 96 h
[10] = Table 5, cAC10 ADCs 8 drugs/mAb, MDPR-Linker-TubM

| Compound | IC50, Karpas299, ALCL (Karpas299, ALCL [1]) [ng/mL] | IC50, L540cy, HL (L540cy, HL [2]; [9]) [ng/mL] | IC50, DEL/BVR, MDR + ALCL (DEL/BVR, MDR + ALCL; [9]) [ng/mL] | IC50, L428, MDR + HL (L428, MDR + HL [3]; [9]) [ng/mL] | IC50 (HL60/RV, MDR + AML; Table 2, 96 hour exposure) [pM] | IC50 (L540cy, HL [5]; Table 2, 96 hour exposure) [pM] | IC50 (HL60, AML; Table 2, 96 hour exposure) [pM] | IC50 (L428, MDR + HL [6]; Table 2, 96 hour exposure) [pM] | IC50 (Karpas299, ALCL [7]; Table 2, 96 hour exposure) [pM] | potency relative to tubulysin M (7), in words [8] | other results |
| --- | --- | --- | --- | --- | --- | --- | --- | --- | --- | --- | --- |
| CCCO[C@H](C[C@H](C(C)C)N(C)C(=O)[C@@H](NC(=O)[C@H]1CCCC[N+]1(C)Cc1ccc(O[C@@H]2O[C@H](C(=O)O)[C@@H](O)[C@H](O)[C@H]2O)c(NC(=O)CCNC(=O)[C@H](CCCCNC(=O)CCOCCOCCOCCOCCOCCOCCOCCOCCOCCOCCOCCOC)NC(=O)[C@H](CN)N2C(=O)C=CC2=O)c1)[C@@H](C)CC)c1nc(C(=O)N[C@@H](Cc2ccccc2)C[C@H](C)C(=O)O)cs1 (stereo partly shown) [Compound 67] | 4 | 10 | 12 | >1000 | – | – | – | – | – | – | – |
| CC[C@H](C)[C@H](NC(=O)[C@H]1CCCC[N+]1(C)Cc1ccc(O[C@@H]2O[C@H](C(=O)O)[C@@H](O)[C@H](O)[C@H]2O)c(NC(=O)CCNC(=O)[C@H](CCCCNC(=O)CCOCCOCCOCCOCCOCCOCCOCCOCCOCCOCCOCCOC)NC(=O)[C@H](CN)N2C(=O)C=CC2=O)c1)C(=O)N(C)[C@H](C[C@@H](OC(C)=O)c1nc(C(=O)N[C@@H](Cc2ccccc2)C[C@H](C)C(=O)O)cs1)C(C)C (stereo partly shown) [Compound 99] | 0.3 | 2 | 2 | 0.5 | – | – | – | – | – | – | IC50, DEL, ALCL (DEL, ALCL; [9]): 1 ng/mL |
| CC[C@H](C)[C@H](NC(=O)[C@H]1CCCC[N+]1(C)Cc1ccc(O[C@@H]2O[C@H](C(=O)O)[C@@H](O)[C@H](O)[C@H]2O)c(NC(=O)CCNC(=O)[C@H](CN)N2C(=O)C=CC2=O)c1)C(=O)N(C)[C@H](C[C@@H](OC)c1nc(C(=O)N[C@@H](Cc2ccccc2)C[C@H](C)C(=O)O)cs1)C(C)C (stereo partly drawn) [Compound 56, (2R)-1-(3-(3-((S)-3-amino-2-(2,5-dioxo-2,5-dihydro-1H-pyrrol-1-yl)propanamido)propanamido)-4-(((2S,3R,4S,5S,6S)-6-carboxy-3,4,5-trihydroxytetrahydro-2H-pyran-2-yl)oxy)benzyl)-2-(((2S,3S)-1-(((1R,3R)-1-(4-(((2R,4S)-4-carboxy-1-phenylpentan-2-yl)carbamoyl)thiazol-2-yl)-1-methoxy-4-methylpentan-3-yl)(methyl)amino)-3-methyl-1-oxopentan-2-yl)carbamoyl)-1-methylpiperidin-1-ium] | 3 | 10 | 20 | >1000 | – | – | – | – | – | – | – |
| CC[C@H](C)[C@H](NC(=O)[C@H]1CCCC[N+]1(C)Cc1ccc(NC(=O)[C@H](C)NC(=O)[C@@H](NC(=O)[C@H](CN)N2C(=O)C=CC2=O)C(C)C)cc1)C(=O)N(C)[C@H](C[C@@H](OC(C)=O)c1nc(C(=O)N[C@@H](Cc2ccccc2)C[C@H](C)C(=O)O)cs1)C(C)C (stereo partly drawn) [Compound 15, (2R)-2-(((2S,3S)-1-(((1R,3R)-1-acetoxy-1-(4-(((2R,4S)-4-carboxy-1-phenylpentan-2-yl)carbamoyl)thiazol-2-yl)-4-methylpentan-3-yl)(methyl)amino)-3-methyl-1-oxopentan-2-yl)carbamoyl)-1-(4-((S)-2-((S)-2-((S)-3-amino-2-(2,5-dioxo-2,5-dihydro-1H-pyrrol-1-yl)propanamido)-3-methylbutanamido)propanamido)benzyl)-1-methylpiperidin-1-ium] | – | – | – | – | – | – | – | – | – | – | IC50, L540cy, HL (L540cy, HL [2]; [10]): 2 ng/mL; IC50, DEL/BVR, MDR + ALCL (DEL/BVR, MDR + ALCL; [10]): 4 ng/mL; IC50, DEL, ALCL (DEL, ALCL; [10]): 0.3 ng/mL; IC50, L428, MDR + HL (L428, MDR + HL [3]; [10]): 1 ng/mL; IC50, Hep3B CD30- HCC [4]: >1000 ng/mL |
| CCO[C@H](C[C@H](C(C)C)N(C)C(=O)[C@@H](NC(=O)[C@H]1CCCCN1C)[C@@H](C)CC)c1nc(C(=O)N[C@@H](Cc2ccccc2)C[C@H](C)C(=O)O)cs1 [Compound 41, (2S,4R)-4-(2-((1R,3R)-3-((2S,3S)—N,3-dimethyl-2-((R)-1-methylpiperidine-2-carboxamido)pentanamido)-1-ethoxy-4-methylpentyl)thiazole-4-carboxamido)-2-methyl-5-phenylpentanoic acid] | – | – | – | – | – | – | – | – | – | – | IC50 (HL60/RV, MDR + AML; Table 1 (examples), 96 hours): 5000 pM; IC50 (L540cy, HL [5]; Table 1 (examples)): 50 pM; IC50 (HL60, AML; Table 1 (examples), 96 hours): 50 pM; IC50 (L428, MDR + HL [6]; Table 1 (examples), 96 hours): 140 pM; IC50 (Karpas299, ALCL [7]; Table 1 (examples), 96 hours): 50 pM; potency on each of the cell lines, in words ([8]; Table 1 (examples) cell lines, 96 hours): trended more potent |
| C=CCO[C@H](C[C@H](C(C)C)N(C)C(=O)[C@@H](NC(=O)[C@H]1CCCCN1C)[C@@H](C)CC)c1nc(C(=O)N[C@@H](Cc2ccccc2)C[C@H](C)C(=O)O)cs1 [Compound 177, (2S,4R)-4-(2-((1R,3R)-1-(allyloxy)-3-((2S,3S)—N,3-dimethyl-2-((R)-1-methylpiperidine-2-carboxamido)pentanamido)-4-methylpentyl)thiazole-4-carboxamido)-2-methyl-5-phenylpentanoic acid] | – | – | – | – | 9000 | 120 | 100 | 150 | 20 | comparable potency | – |
| CCO[C@H](C[C@H](C(C)C)N(C)C(=O)[C@@H](NC(=O)[C@H]1CCCC[N+]1(C)Cc1ccc(O[C@@H]2O[C@H](C(=O)O)[C@@H](O)[C@H](O)[C@H]2O)c(NC(=O)CCNC(=O)[C@H](CCCCNC(=O)CCOCCOCCOCCOCCOCCOCCOCCOCCOCCOCCOCCOC)NC(=O)[C@H](CN)N2C(=O)C=CC2=O)c1)[C@@H](C)CC)c1nc(C(=O)N[C@@H](Cc2ccccc2)C[C@H](C)C(=O)O)cs1 (stereo partly shown) [Compound 66] | 1 | 5 | 6 | 6 | – | – | – | – | – | – | – |
| C=C(C)CO[C@H](C[C@H](C(C)C)N(C)C(=O)[C@@H](NC(=O)[C@H]1CCCCN1C)[C@@H](C)CC)c1nc(C(=O)N[C@@H](Cc2ccccc2)C[C@H](C)C(=O)O)cs1 [Compound 176, (2S,4R)-4-(2-((1R,3R)-3-((2S,3S)—N,3-dimethyl-2-((R)-1-methylpiperidine-2-carboxamido)pentanamido)-4-methyl-1-((2-methylallyl)oxy)pentyl)thiazole-4-carboxamido)-2-methyl-5-phenylpentanoic acid] | – | – | – | – | 6000 | 60 | 70 | 120 | 120 | comparable potency | – |
| C#CCO[C@H](C[C@H](C(C)C)N(C)C(=O)[C@@H](NC(=O)[C@H]1CCCCN1C)[C@@H](C)CC)c1nc(C(=O)N[C@@H](Cc2ccccc2)C[C@H](C)C(=O)O)cs1 [Compound 178, (2S,4R)-4-(2-((1R,3R)-3-((2S,3S)—N,3-dimethyl-2-((R)-1-methylpiperidine-2-carboxamido)pentanamido)-4-methyl-1-(prop-2-yn-1-yloxy)pentyl)thiazole-4-carboxamido)-2-methyl-5-phenylpentanoic acid] | – | – | – | – | 27000 | 170 | 200 | 410 | 50 | attenuated in potency | – |
